Laboratory results as given in patent publication EP0852148B1, “Products having anti-microbial activity” (SION MICROTEC LTD., priority 1997, dated 1998).
Counter-ions that a name gives are not always drawn. Like-named read-outs stand apart in the source and are kept apart here.

Columns and labels:
S. epidermidis (SE) = assay: Inhibition zone on bacterial lawn on agar plate, daily sequential transfer of sample; assay type: cell-based
Method: (§1) The antimicrobial activity of the product was tested on lawns of several bacteria: Staphylococcus aureus (SA), S. epidermidis (SE), Escherichia coli (EC) and Pseudonomas aeruginosa (PA), inoculated on agar plates, by placing a sample of about 2 cm^2 on the surface of the plate, and measurement of the inhibition zone after growth of the bacteria for 18 hours at 37°C. After 24 hours, the sample was passed sequentially to another inoculated agar plate and the inhibition zone measured. This daily transfer procedure continued up to the loss of growth-inhibiting activity.
(§2) The data set forth in the Tables herein is presented as follows: a = no inhibition b = partial growth inhibition under matrix c = total growth inhibition under matrix d = growth inhibition beyond the matrix, but at less than 1 mm E x-y = growth inhibition in mm; x = minimum distance; y = maximum distance.

Escherichia coli (EC) = assay: as above; assay type: cell-based
Method: as §1, §2

[1] = test system: Staphylococcus aureus (SA); assay: as above; assay type: cell-based
[2] = test system: Staphylococcus aureus (SA); assay: as above; assay type: cell-based; settings: for Growth Inhibition SA: procedure of Example 1 (cotton gauze)
Method: as §1, with “A matrix made of cotton gauze 75 mm wide, in accordance with the British Pharmacopoeia, was soaked in 0.5% chlorohexidine gluconate (CHXG) aqueous solution at 25°C and dried by forced hot air at 60°C in a continuous process. The” for “The”
as §2

[3] = test system: Pseudonomas aeruginosa (PA); assay: as above; assay type: cell-based
Method: as §1, with “A matrix made of cotton gauze 75 mm wide, in accordance with the British Pharmacopoeia, was soaked in 0.5% chlorohexidine gluconate (CHXG) aqueous solution at 25°C and dried by forced hot air at 60°C in a continuous process. The” for “The”
as §2

[4] = test system: human immunodeficiency virus type I; settings: aqueous solution, in 15 seconds; cited from earlier work
[5] = in vivo; cited from earlier work
[6] = test system: Staphylococcus aureus (SA); assay: Inhibition zone on bacterial lawn on agar plate, daily sequential transfer of sample; assay type: cell-based; settings: procedure of Example 1 (cotton gauze)
Method: A matrix made of cotton gauze 75 mm wide, in accordance with the British Pharmacopoeia, was soaked in 0.5% chlorohexidine gluconate (CHXG) aqueous solution at 25°C and dried by forced hot air at 60°C in a continuous process. The antimicrobial activity of the product was tested on lawns of several bacteria: Staphylococcus aureus (SA), S. epidermidis (SE), Escherichia coli (EC) and Pseudonomas aeruginosa (PA), inoculated on agar plates, by placing a sample of about 2 cm^2 on the surface of the plate, and measurement of the inhibition zone after growth of the bacteria for 18 hours at 37°C. After 24 hours, the sample was passed sequentially to another inoculated agar plate and the inhibition zone measured. This daily transfer procedure continued up to the loss of growth-inhibiting activity. The data set forth in the Tables herein is presented as follows: a = no inhibition b = partial growth inhibition under matrix c = total growth inhibition under matrix d = growth inhibition beyond the matrix, but at less than 1 mm E x-y = growth inhibition in mm; x = minimum distance; y = maximum distance.

[7] = Matrix Cellular triacetate, CHXH 0.1% or CHXG 1.0%
[8] = Matrix Polyethylene, CHXH 0.1% or CHXG 1.0%
[9] = Matrix Polypropylene, CHXH 0.1% or CHXG 1.0%
[10] = non-woven matrix (polyethylene, viscose and cotton), CHXG Concentration 2 %
[11] = non-woven matrix (polyethylene, viscose and cotton), CHXG Concentration 5 %
[12] = Matrix Nylon, CHXH 0.1% or CHXG 1.0%
[13] = Matrix Polyethylene, CHXH 0.1% or CHXG 1.0%, hydrochloride
[14] = Matrix Polypropylene, CHXH 0.1% or CHXG 1.0%, hydrochloride
[15] = Matrix Nylon, CHXH 0.1% or CHXG 1.0%, hydrochloride

## N=C(NCCCCCCNC(=N)NC(=N)Nc1ccc(Cl)cc1)NC(=N)Nc1ccc(Cl)cc1 [CHXG, chlorohexidine gluconate]
S. epidermidis (SE); [7]
  Microorganism Growth Inhibition SE: E 4 mm
S. epidermidis (SE); [8]
  Microorganism Growth Inhibition SE: E 3 mm
S. epidermidis (SE); [9]
  Microorganism Growth Inhibition SE: E 2-3 mm
S. epidermidis (SE); [10]
  Microorganism Growth Inhibition SE: E 3-5 mm
S. epidermidis (SE); [11]
  Microorganism Growth Inhibition SE: E 4-5 mm
Escherichia coli (EC); [7]
  Microorganism Growth Inhibition EC: E 3-4 mm
Escherichia coli (EC); [12]
  Microorganism Growth Inhibition EC: E 2-4 mm
Escherichia coli (EC); [8]
  Microorganism Growth Inhibition EC: E 2-3 mm
Escherichia coli (EC); [9]
  Microorganism Growth Inhibition EC: E 2-4 mm
Escherichia coli (EC); [10]
  Microorganism Growth Inhibition EC: E 2-3 mm
Escherichia coli (EC); [11]
  Microorganism Growth Inhibition EC: E 3-4 mm
[1]; [7]
  Microorganism Growth Inhibition SA: E 4-5 mm
[1]; [12]
  Microorganism Growth Inhibition SA: E 3-5 mm
[1]; [8]
  Microorganism Growth Inhibition SA: E 3-5 mm
[1]; [9]
  Microorganism Growth Inhibition SA: E 2-5 mm
[1]; [10]
  Microorganism Growth Inhibition SA: E 5-7 mm
[1]; [11]
  Microorganism Growth Inhibition SA: E 4-5 mm
[2]; Day 1
  Growth Inhibition SA: E 4-5 mm
[2]; Day 2
  Growth Inhibition SA: E 3-4 mm
[2]; Day 3
  Growth Inhibition SA: E 2-3 mm
[2]; Day 4
  Growth Inhibition SA: E 2-3 mm
[3]; [7]
  Microorganism Growth Inhibition PA: E 1 mm
[3]; [12]
  Microorganism Growth Inhibition PA: d (growth inhibition beyond the matrix, but at less than 1 mm)
[3]; [8]
  Microorganism Growth Inhibition PA: E 1 mm
[3]; [10]
  Microorganism Growth Inhibition PA: d (growth inhibition beyond the matrix, but at less than 1 mm)
[3]; [11]
  Microorganism Growth Inhibition PA: E 1-2 mm

## N=C(NCCCCCCNC(=N)NC(=N)Nc1ccc(Cl)cc1)NC(=N)Nc1ccc(Cl)cc1 [CHXH, chlorohexidine hydrochloride]
S. epidermidis (SE)
  Microorganism Growth Inhibition SE: E 3-4 mm
S. epidermidis (SE); [12]
  Microorganism Growth Inhibition SE: E 2-3 mm
S. epidermidis (SE); [13]
  Microorganism Growth Inhibition SE: E 2 mm
S. epidermidis (SE); [14]
  Microorganism Growth Inhibition SE: E 1-2 mm
Escherichia coli (EC)
  Microorganism Growth Inhibition EC: E 2-4 mm
Escherichia coli (EC); [15]
  Microorganism Growth Inhibition EC: E 2-3 mm
Escherichia coli (EC); [13]
  Microorganism Growth Inhibition EC: E 1-3 mm
Escherichia coli (EC); [14]
  Microorganism Growth Inhibition EC: E 1-3 mm
[1]; [15]
  Microorganism Growth Inhibition SA: E 3-4 mm
[1]; [13]
  Microorganism Growth Inhibition SA: E 3-4 mm
[1]; [14]
  Microorganism Growth Inhibition SA: E 2-4 mm
[2]
  Microorganism Growth Inhibition SA: E 5-6 mm
[3]
  Microorganism Growth Inhibition PA: E 1-2 mm

## CCCCCCCCCCCCCCCC[n+]1ccccc1.[Cl-] [Example 844, Cetyl piridinium chloride]
[2]; Day 1
  Growth Inhibition SA: E 3-4 mm
[2]; Day 2
  Growth Inhibition SA: E 5-6 mm
[2]; Day 3
  Growth Inhibition SA: E 3-4 mm
[2]; Day 4
  Growth Inhibition SA: E 2-4 mm

## CCCCCCCCCCCCCCCC[N+](C)(C)Cc1ccccc1.[Cl-] [Example 861, Benzyl dimethyl hexocylammonium chloride]
[2]; Day 1
  Growth Inhibition SA: E 3-5 mm
[2]; Day 2
  Growth Inhibition SA: E 3-4 mm
[2]; Day 3
  Growth Inhibition SA: E 3-4 mm
[2]; Day 4
  Growth Inhibition SA: E 2-3 mm

## [H]/N=C(\N/C(=N/[H])NCCCCCCNC(=N)NC(=N)Nc1ccc(Cl)cc1)Nc1ccc(Cl)cc1 [chlorhexidine]
[4]
  inactivation of human immunodeficiency virus type I: 100%

## Clc1nc(Cl)nc(Cl)n1 [cyanuric chloric linking group, cyanuric chloride]
[5]
  LD50: 18 mg/kg

## Bacitracin [Example 846]
[6]; Day 1
  Growth Inhibition SA: E 4-6 mm
[6]; Day 2
  Growth Inhibition SA: E 1-3 mm

## Septabicdidecyl dimethyl ammonium bromide [Example 868]
[2]; Day 1
  Growth Inhibition SA: E 5-6 mm
[2]; Day 2
  Growth Inhibition SA: E 5-6 mm
[2]; Day 3
  Growth Inhibition SA: E 4-5 mm
[2]; Day 4
  Growth Inhibition SA: E 3-4 mm
